Test results reported in article PMC11435058, “Synthesis of New Thiazole-Privileged Chalcones as Tubulin Polymerization Inhibitors with Potential Anticancer Activities” (Pharmaceuticals, 2024).

Legend:
M14 = experiment: NCI-60 anticancer screen (SRB; single dose and five doses); conditions: Homo sapiens, M14, 48 h, read-out: Growth Percentage
786-0 = experiment: as above; conditions: Homo sapiens, 786-0, 48 h, read-out: Growth Percentage
SK-MEL-2 = experiment: as above; conditions: Homo sapiens, SK-MEL-2, 48 h, read-out: Growth Percentage
NCI-H460 = experiment: as above; conditions: Homo sapiens, NCI-H460, 48 h, read-out: Growth Percentage
COLO 205 = experiment: as above; conditions: Homo sapiens, COLO 205, 48 h, read-out: Growth Percentage
MALME-3M = experiment: as above; conditions: Homo sapiens, 48 h, read-out: Growth Percentage
NCI-H322M = experiment: as above; conditions: Homo sapiens, 48 h, read-out: Growth Percentage
PC-3 = experiment: as above; conditions: Homo sapiens, PC-3, 48 h, read-out: Growth Percentage
A498 = experiment: as above; conditions: Homo sapiens, A498, 48 h, read-out: Growth Percentage, A498; dose of 10 μM
SN12C = experiment: as above; conditions: Homo sapiens, 48 h, read-out: Growth Percentage
SW-620 = experiment: as above; conditions: Homo sapiens, SW-620, 48 h, read-out: Growth Percentage
OVCAR-3 = experiment: cells; conditions: Homo sapiens, OVCAR-3, 48 h, read-out: Growth Percentage
ACHN = experiment: NCI-60 anticancer screen (SRB; single dose and five doses); conditions: Homo sapiens, 48 h, read-out: Growth Percentage
SF-268 = experiment: as above; conditions: Homo sapiens, SF-268, 48 h, read-out: Growth Percentage
RXF 393 = experiment: as above; conditions: Homo sapiens, RXF 393, 48 h, read-out: Growth Percentage
UACC-257 = experiment: as above; conditions: Homo sapiens, UACC-257, 48 h, read-out: Growth Percentage
BT-549 = experiment: as above; conditions: Homo sapiens, BT-549, 48 h, read-out: Growth Percentage
NCI-H226 = experiment: as above; conditions: Homo sapiens, NCI-H226, 48 h, read-out: Growth Percentage
HCT-15 = experiment: as above; conditions: Homo sapiens, HCT-15, 48 h, read-out: Growth Percentage
SNB-75 = experiment: as above; conditions: Homo sapiens, SNB-75, 48 h, read-out: Growth Percentage
HL-60(TB) = experiment: as above; conditions: Homo sapiens, HL-60, 48 h, read-out: Growth Percentage
MDA-MB-468 = experiment: as above; type: cell-based, human; conditions: Homo sapiens, 48 h; MDA-MB-468; dose of 10 μM; read-out: Growth Percentage
How it was run: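 NCI panel of about 60 human tumor cell lines treated with compound at a single concentration (10μM) for 48 h. Growth measured by SRB protein staining and expressed as percent growth of treated versus untreated control cells.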

MOLT-4 = experiment: as above; conditions: Homo sapiens, MOLT-4, 48 h, read-out: Growth Percentage
A549/ATCC = experiment: as above; conditions: Homo sapiens, A549, 48 h, read-out: Growth Percentage
NCI-H522 = experiment: as above; conditions: Homo sapiens, NCI-H522, 48 h, read-out: Growth Percentage

Compound | activity at 10 µM (M14) [%] | activity at 10 µM (786-0) [%] | activity at 10 µM (SK-MEL-2) [%] | activity at 10 µM (NCI-H460) [%] | activity at 10 µM (COLO 205) [%] | activity at 10 µM (MALME-3M) [%] | activity at 10 µM (NCI-H322M) [%] | activity at 10 µM (PC-3) [%] | activity at 10 µM (A498) [%] | activity at 10 µM (SN12C) [%] | activity at 10 µM (SW-620) [%] | activity at 10 µM (OVCAR-3) [%] | activity at 10 µM (ACHN) [%] | activity at 10 µM (SF-268) [%] | activity at 10 µM (RXF 393) [%] | activity at 10 µM (UACC-257) [%] | activity at 10 µM (BT-549) [%] | activity at 10 µM (NCI-H226) [%] | activity at 10 µM (HCT-15) [%] | activity at 10 µM (SNB-75) [%] | other results
Cc1ccc(/C=C/C(=O)c2sc(=S)[nH]c2C)cc1 [2j, (E)-1-(4-Methyl-2-Thioxo-2,3-Dihydrothiazol-5-yl)-3-(p-Tolyl)Prop-2-En-1-One] | 83 | 70.7 | 89.8 | 53.1 | 122 | 84.7 | 62.1 | 74.8 | 131 | 62.3 | 35.9 | 15 | 71.2 | 86.9 | 55.4 | 80.1 | 56.1 | 93.8 | 38.6 | 78.1 | activity at 10 µM (HL-60(TB)): 61%; activity at 10 µM (MDA-MB-468): 11.8%; activity at 10 µM (MOLT-4): 68.8%; activity at 10 µM (A549/ATCC): 74.3%; activity at 10 µM (NCI-H522): 60.2%
Cc1[nH]c(=S)sc1C(=O)/C=C/c1ccc(N(C)C)cc1 [2k, (E)-3-(4-(Dimethylamino)Phenyl)-1-(4-Methyl-2-Thioxo-2,3-Dihydrothiazol-5-yl)Prop-2-En-1-One] | 83.2 | 91.7 | 88.9 | 85.7 | 115 | 79.4 | 81.1 | 71.7 | 130 | 75.7 | 89.9 | 82.2 | 75.7 | 99.3 | 90.8 | 64.1 | 82.2 | 88.3 | 64.4 | 96 | activity at 10 µM (HL-60(TB)): 87%; activity at 10 µM (MDA-MB-468): 35.4%; activity at 10 µM (MOLT-4): 62.1%; activity at 10 µM (A549/ATCC): 68.1%; activity at 10 µM (NCI-H522): 58.9%
